Two molecules from patent US11383009B2, “Rapamycin 40-O-cyclic hydrocarbon esters, compositions and methods” (BIOTRONIK AG, priority 2012, dated 2022) can be followed below.

A short description of series [1]: Stent coating condition after stent expansion (ductility). The note with it: coating of 1:1 weight ratio drug and polylactic acid; compared with rapamycin coating. The source says: In accordance with one of the unexpected advantages of the present invention, it has been discovered that a coating formed with the compounds of the present invention is substantially more ductile, i.e., less prone to cracking, than a coating formed with rapamycin. This property can be seen from the photomicrographs of FIGS. 1 and 2, which show the condition of a stent coating after stent expansion in a stent formed of a 1:1 weight ratio of […] and polylactic acid (FIG. 1) and a coating formed of a 1:1 weight ratio of Compound 1 (Table I) and polylactic acid (FIG. 2). […] An important advantage of the drug compound in this setting is that a coating with a high drug:polymer ratio can be prepared without the need for addition of a separate plasticizer, which may cause toxic responses, affect drug elution rates, and extend development times and increase production costs.

Series [2] in a line: Drug stability in rabbit vitreous humour at 37° C. The series is classed as in vitro ADME, New Zealand White rabbit. The source says:
(§1) The assay comparison between sirolimus and the compounds of the present invention (denoted as CRC) is further described at Table XI.

The nature of series [3]: Drug stability in rabbit aqueous humour at 37° C. The series is classed as in vitro ADME.
From the text: as §1

For series [4], the system named is vascular restenosis, porcine coronary arteries. The experiment in a line: Trial B: coated magnesium stents implanted in porcine coronary arteries, 28 days. To be noted: Group 1 (n = 5 stents), 223 μg drug in polylactic acid on parylene C coated magnesium stent; 28 days post-implant.
From the text: Coronary artery measurements were made from angiographic images before stent deployment, immediately after deployment, and twenty-eight days after deployment to determine the effectiveness of the coated stent in reducing restenosis. Determination of angiographic late loss was made by subtraction of the minimum vessel lumen diameter of the stented vessel at 28 days post-implant from the minimal vessel lumen diameter at the time of implant. Determination of percent diameter stenosis was made at 28 days post-implant by the calculation of 100(1-MLD/refdia.) where MLD represents the minimum vessel lumen diameter at 28 days post-implant and refdia. is the average diameter of the vessel sections adjacent to the stented vessel.
Series [5] in a line: Drug elution and total recovery from polymer-coated stents. The series is classed as physicochemical. The note with it: single stent, 1:1 drug/polylactic acid coating; 25% ethanol in water, 37° C., 168 hours elution plus exhaustive acetonitrile extraction. Here is the method:
This section examines the stability of the compounds of the invention when released from a reservoir over a several-day to several-week period. In one study, a series of stents were prepared with a suitable coating of drug/polymer mixture. The stents were fabricated from laser cut and electropolished 316L Stainless Steel and measured 16 millimeters in length. The coating mixture contained an equal weight of polylactic acid and each of the compounds to be evaluated. The mixture components were weighed, combined in a glass vial with acetone at room temperature and then vortexed until all of the materials dissolved. Each individual stent was weighed using a Mettler model XP105 balance. […]
After visual inspection the stents were mounted onto 3.0 mm×16 mm angioplasty balloons using a hand crimper. […] The appropriate pressure for inflation was determined using the inflation table applicable to the angioplasty catheter. […]
For elution comparison each stent was transferred into its respective 7-mL borosilicate vial and 4.0 mL 25% ethanol in water (w/w) elution medium was added. […] The amount of drug eluted during each time interval was determined by HPLC. After a cumulative incubation of 168 hours, the remaining drug in each stent was determined by exhaustive extraction by adding 4.0 mL acetonitrile to each stent for 20 minutes at ambient temperature followed by vortexing for 10 seconds. […]

The mark [6] stands for this setting: 72 hours, drug dose 48.4 μg (SIR 1), 52.2 μg (CRC 1).
Where [7] appears, read: […], drug dose 47.8 μg (SIR 2), 54.0 μg (CRC 2).
Setting [8] is: 72 hours, drug dose 45.2 μg (SIR 1), 51.4 μg (CRC 1).

The structures appear in SMILES notation. “And” between values parts separate entries of the source, which are not always exact repeats. Equal entries are not always repeated.

As to `COC1CC2CCC(C)C(O)(O2)C(=O)C(=O)N2CCCCC2C(=O)OC(C(C)CC2CCC(OC(=O)C3CC3)C(OC)C2)CC(=O)C(C)C=C(C)C(O)C(OC)C(=O)C(C)CC(C)C=CC=CC=C1C` (stereo not shown) [Compound 1, Rapamycin 40-O-Cyclic Hydrocarbon Ester with Cyclopropanecarbonyl Chloride], in series [1], the “condition of stent coating after stent expansion (ductility)” value is listed as “more ductile”.

As to `CO[C@H]1C[C@@H]2CC[C@@H](C)[C@@](O)(O2)C(=O)C(=O)N2CCCC[C@H]2C(=O)O[C@H]([C@H](C)C[C@@H]2CC[C@@H](O)[C@H](OC)C2)CC(=O)[C@H](C)/C=C(\C)[C@@H](O)[C@@H](OC)C(=O)[C@H](C)C[C@H](C)/C=C/C=C/C=C/1C` [Rapamycin], the “Degradants (HPLC UV Area Percent)” value is given as 3% in series [2] (0 hrs); 3% in series [2] (1 hrs); 7% in series [2] (4 hrs); 43% in series [2] (24 hrs); 71% in series [2] (48 hrs); 84% in series [2] (72 hrs). Moreover, the “Degradants (HPLC UV Area Percent)” value in series [3] (0 hrs) is on record as 2%; in series [3] (1 hrs) it was 4%; in series [3] (4 hrs), 18%; in series [3] (24 hrs), 86%; in series [3] (48 hrs) it was 96%; in series [3] (72 hrs), 100%. In addition, the “Intact drug (HPLC UV Area Percent)” value in series [2] (0 hrs) stood at 97%; in series [2] (1 hrs), 97%; in series [2] (4 hrs), 93%; in series [2] (24 hrs), 57%; in series [2] (48 hrs), 29%; in series [2] (72 hrs) it was 16%. Moreover, the “Intact drug (HPLC UV Area Percent)” value in series [3] (0 hrs) is on record as 98%; in series [3] (1 hrs), 96%; in series [3] (4 hrs), 82%; in series [3] (24 hrs) it was 14%; in series [3] (48 hrs) it was 4%; in series [3] (72 hrs), 0%. The “% Remaining (72 Hours)” value was 8% in series [2] (setting [6]) and 0% in series [3] (setting [8]). For the same molecule, the “Drug Remaining 72 Hours” value in series [2] (setting [6]) came out at 4.0 µg; in series [3] (setting [8]) it was 0.0 µg. Besides, the “% Remaining (192 Hours)” value in series [2] (setting [7]) was 1%. In addition, in series [2] (setting [7]), the “Drug Remaining 192 Hours” value was 0.6 µg. The “Angiographic Late Loss” value in series [4] amounted to 0.42 mm. The “Diameter Stenosis” value in series [4] came to 13.1%. Besides, in series [5], the “Total Drug (μg) Recovered” value is 109.1 µg and 84.6 µg and 103.4 µg and 125.2 µg and 71.6 µg.
